From ChEMBL document CHEMBL1201862, “PubChem BioAssay data set” (2004)
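Interpolation was linear, between the two tested concentrations surrounding the appropriate level; five concentrations were tested over 48 hours in 96-well plates. GI50 = concentration required for 50% inhibition of growth.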 Active and inactive are the calls of the source. No stated cut-off is given here; in the data, active = GI50 up to about 1.1 µM and inactive = higher.

How the values were obtained:
Experiment in all cases: NCI-60 cell line screen, 48 h
CCRF-CEM = test system: CCRF-CEM
IGROV-1 = test system: IGROV-1
RXF 393 = test system: RXF 393
OVCAR-8 = test system: OVCAR-8
SK-OV-3 = test system: SK-OV-3
SF-295 = test system: SF-295
U-251 = test system: U-251
786-0 = test system: 786-0
A549 = test system: A549
SK-MEL-28 = test system: SK-MEL-28
TK-10 = test system: TK-10
SNB-19 = test system: SNB-19
PC-3 = test system: PC-3
MDA-MB-435 = test system: MDA-MB-435
LOX IMVI = test system: LOX IMVI
UACC-257 = test system: UACC-257
DU-145 = test system: DU-145
OVCAR-3 = test system: OVCAR-3
HL-60 = test system: HL-60
SK-MEL-2 = test system: SK-MEL-2
M14 = test system: M14
OVCAR-5 = test system: OVCAR-5
SNB-75 = test system: SNB-75
UACC-62 = test system: UACC-62
SF-268 = test system: SF-268
SK-MEL-5 = test system: SK-MEL-5
HOP-92 = test system: HOP-92
Hs-578T = test system: Hs-578T
HCC 2998 = test system: HCC 2998
A498 = test system: A498
MDA-MB-231 = test system: MDA-MB-231
SW-620 = test system: SW-620
KM12 = test system: KM12
EKVX = test system: EKVX
NCI-H23 = test system: NCI-H23
HOP-62 = test system: HOP-62
NCI-H226 = test system: NCI-H226
MDA-N = test system: MDA-N
UO-31 = test system: UO-31
CAKI-1 = test system: CAKI-1
T47D = test system: T47D
COLO 205 = test system: COLO 205
NCI/ADR-RES = test system: NCI/ADR-RES
MCF7 = test system: MCF7
OVCAR-4 = test system: OVCAR-4
K562 = test system: K562
HT-29 = test system: HT-29
HCT-15 = test system: HCT-15
RPMI-8226 = test system: RPMI-8226
MOLT-4 = test system: MOLT-4
ACHN = test system: ACHN
SN12C = test system: SN12C
BT-549 = test system: BT-549
HCT-116 = test system: HCT-116
Malme-3M = test system: Malme-3M

Measured: GI50

CN1C(=O)N/C(=C\c2ccc(S(=O)(=O)NN)cc2)C1=O
> 100 µM: HCT-15
inactive: CCRF-CEM > 100 µM | IGROV-1 > 100 µM | RXF 393 > 100 µM | OVCAR-8 > 100 µM | SK-OV-3 > 100 µM | SF-295 > 100 µM | U-251 > 100 µM | 786-0 > 100 µM | A549 > 100 µM | SK-MEL-28 > 100 µM | TK-10 > 100 µM | SNB-19 > 100 µM | PC-3 > 100 µM | MDA-MB-435 > 100 µM | LOX IMVI > 100 µM | UACC-257 > 100 µM | DU-145 > 100 µM | OVCAR-3 > 100 µM | HL-60 > 100 µM | SK-MEL-2 > 100 µM | M14 > 100 µM | OVCAR-5 > 100 µM | SNB-75 > 100 µM | UACC-62 > 100 µM | SF-268 > 100 µM | SK-MEL-5 > 100 µM | HOP-92 > 100 µM | Hs-578T > 100 µM | HCC 2998 > 100 µM | A498 > 100 µM | MDA-MB-231 > 100 µM | SW-620 > 100 µM | KM12 > 100 µM | EKVX > 100 µM | NCI-H23 > 100 µM | HOP-62 > 100 µM | NCI-H226 > 100 µM | MDA-N > 100 µM | UO-31 > 100 µM | CAKI-1 > 100 µM | T47D > 100 µM | COLO 205 > 100 µM | NCI/ADR-RES > 100 µM | MCF7 > 100 µM | OVCAR-4 > 100 µM | K562 > 100 µM | HT-29 > 100 µM | RPMI-8226 > 100 µM | MOLT-4 > 100 µM | ACHN > 100 µM | SN12C > 100 µM | BT-549 > 100 µM | HCT-116 > 100 µM | Malme-3M > 100 µM
